These results are taken from patent US12187713B2, “Immunomodulators, compositions and methods thereof” (Betta Pharmaceuticals Co., Ltd, priority 2019, dated 2025).

SMILES strings stand for the structures. Bounds are passed on as bounds.

One assay deals with PD-1/PD-L1 (Homo sapiens (Human), UniProt Q9NZQ7). The assay can be described thus: PD-1/PD-L1 Binding Assay (Alphascreen). Particulars: numeric values. The gist of the method: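 PD-1/PD-L1 binding detected by anti-6×His acceptor and streptavidin donor beads after 120 min in the dark at 25 °C. Beforehand, the two proteins were incubated 15 min at 25 °C with inhibitor at 0.015–300 nM (1% DMSO). IC50 comes from a log concentration–response curve.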
Sequence of PD-1/PD-L1 (Q9NZQ7 19-238): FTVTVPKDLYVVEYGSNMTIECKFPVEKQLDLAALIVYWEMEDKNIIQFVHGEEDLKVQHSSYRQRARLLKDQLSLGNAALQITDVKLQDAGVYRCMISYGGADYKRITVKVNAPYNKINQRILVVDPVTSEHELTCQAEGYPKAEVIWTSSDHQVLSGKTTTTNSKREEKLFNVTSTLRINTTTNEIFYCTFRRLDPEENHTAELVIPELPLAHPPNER
With `Cc1c(-c2nc3cc(CN4CC5COCC5C4)c(OC(F)F)cc3o2)cccc1-c1cccc(-c2nc3cc(CN4CCC[C@H]4C(=O)O)c(OC(F)F)cc3o2)c1C` (stereo partly drawn) [Example 55, ((6-(difluoromethoxy)-2-(3′-(6-(difluoromethoxy)-5-((tetrahydro-1H-furo[3,4-c]pyrrol-5(3H)-yl)methyl)benzo[d]oxazol-2-yl)-2,2′-dimethyl-[1,1′-biphenyl]-3-yl)benzo[d]oxazol-5-yl)methyl)-L-proline], the IC50 was 0.57 nM.

`Cc1c(-c2nc3cc(CNCC4(CO)CC(F)(F)C4)c(OC(F)F)cc3o2)cccc1-c1cccc(-c2nc3cc(CN4CCC[C@H]4C(=O)O)c(OC(F)F)cc3o2)c1C` [Example 73, ((2-(3′-(5-((((3,3-difluoro-1-(hydroxymethyl)cyclobutyl)methyl)amino)methyl)-6-(difluoromethoxy)benzo[d]oxazol-2-yl)-2,2′-dimethyl-[1,1′-biphenyl]-3-yl)-6-(difluoromethoxy)benzo[d]oxazol-5-yl)methyl)-L-proline] showed an IC50 of 0.42 nM.

`Cc1c(-c2c[nH]c([C@@H]3CCCN3)n2)cccc1-c1cccc(-c2nc3cc(CN4CCC[C@H]4C(=O)O)c(OC(F)F)cc3o2)c1C` [Example 247, ((6-(difluoromethoxy)-2-(2,2′-dimethyl-3′-(2-((S)-pyrrolidin-2-yl)-1H-imidazol-4-yl)-[1,1′-biphenyl]-3-yl)benzo[d]oxazol-5-yl)methyl)-L-proline] returned an IC50 of 5.2 nM.

Consider `Cc1c(-c2ccc(CN3CCCC3)nc2)cccc1-c1cccc(-c2nc3cc(CN4CCC[C@H]4C(=O)O)c(OC(F)F)cc3o2)c1C` [Example 263, ((6-(difluoromethoxy)-2-(2,2′-dimethyl-3′-(6-(pyrrolidin-1-ylmethyl)pyridin-3-yl)-[1,1′-biphenyl]-3-yl)benzo[d]oxazol-5-yl)methyl)-L-proline], for which the IC50 was 0.98 nM.

In turn, `Cc1c(-c2nc3c(o2)CCN(CC(=O)O)C3)cccc1-c1cccc(-c2nc3cc(CN4CCC[C@H]4C(=O)O)c(OC(F)F)cc3o2)c1C` [Example 184, ((2-(3′-(5-(carboxymethyl)-4,5,6,7-tetrahydrooxazolo[4,5-c]pyridin-2-yl)-2,2′-dimethyl-[1,1′-biphenyl]-3-yl)-6-(difluoromethoxy)benzo[d]oxazol-5-yl)methyl)-L-proline] came in with an IC50 of 2.3 nM.

The molecule `Cc1c(-c2nc3cc(CN4CC(C)(C)C4)c(OC(F)F)cc3o2)cccc1-c1cccc(-c2nc3cc(CN4CCC[C@H]4C(=O)O)c(OC(F)F)cc3o2)c1C#N` [Example 128, ((2-(2-cyano-3′-(6-(difluoromethoxy)-5-((3,3-dimethylazetidin-1-yl)methyl)benzo[d]oxazol-2-yl)-2′-methyl-[1,1′-biphenyl]-3-yl)-6-(difluoromethoxy)benzo[d]oxazol-5-yl)methyl)-L-proline] returned an IC50 of 0.14 nM.

Staying with this assay, now noted: range symbols.
Regarding `CCCNCCCN(C)Cc1cc2nc(-c3cccc(-c4cccc(-c5nc6cc(CN7CCC[C@H]7C(=O)O)c(OC(F)F)cc6o5)c4C)c3C)oc2cc1OC(F)F` [Example 53, ((6-(difluoromethoxy)-2-(3′-(6-(difluoromethoxy)-5-((methyl(3-(propylamino)propyl)amino)methyl)benzo [d]oxazol-2-yl)-2,2′-dimethyl-[1,1′-biphenyl]-3-yl)benzo[d]oxazol-5-yl)methyl)-L-proline], the IC50 was 0.1 to 5 nM.

The molecule `COc1nc(-c2cccc(-c3cccc(-c4nc5cc(CN6CCC[C@H]6C(=O)O)c(OC(F)F)cc5o4)c3C)c2Cl)cnc1CNCC1CCC(=O)N1` (stereo partly drawn) [Example 287, ((2-(2′-chloro-3′-(6-methoxy-5-((((5-oxopyrrolidin-2-yl)methyl)amino)methyl)pyrazin-2-yl)-2-methyl-[1,1′-biphenyl]-3-yl)-6-(difluoromethoxy)benzo[d]oxazol-5-yl)methyl)-L-proline] yielded an IC50 of 0.1 to 5 nM.

Turning to `Cc1c(-c2nc3c(o2)CCN(C(C)C(=O)O)C3)cccc1-c1cccc(-c2nc3cc(CN4CCC[C@H]4C(=O)O)c(OC(F)F)cc3o2)c1C` (stereo partly drawn) [Example 186, ((2-(3′-(5-(1-carboxyethyl)-4,5,6,7-tetrahydrooxazolo[4,5-c]pyridin-2-yl)-2,2′-dimethyl-[1,1′-biphenyl]-3-yl)-6-(difluoromethoxy)benzo[d]oxazol-5-yl)methyl)-L-proline], the IC50 fell in the range of 0.1 to 5 nM.

For the molecule `CCNCc1cc2nc(-c3cccc(-c4cccc(-c5nc6cc(CN7CCC[C@H]7C(=O)O)c(OC(F)F)cc6o5)c4C)c3C)oc2cc1OCc1cncc(S(C)(=O)=O)c1` [Example 122, ((6-(difluoromethoxy)-2-(3′-(5-((ethylamino)methyl)-6-((5-(methylsulfonyl)pyridin-3-yl)methoxy)benzo[d]oxazol-2-yl)-2,2′-dimethyl-[1,1′-biphenyl]-3-yl)benzo[d]oxazol-5-yl)methyl)-L-proline], the IC50 fell in the range of 0.1 to 5 nM.

`Cc1c(-c2nc3cc(CN4CCCC4)cc(C#N)c3[nH]2)cccc1-c1cccc(-c2nc3cc(CN4CCC[C@H]4C(=O)O)c(OC(F)F)cc3o2)c1C` [Example 295, ((2-(3′-(7-cyano-5-(pyrrolidin-1-ylmethyl)-1H-benzo[d]imidazol-2-yl)-2,2′-dimethyl-[1,1′-biphenyl]-3-yl)-6-(difluoromethoxy)benzo[d]oxazol-5-yl)methyl)-L-proline] showed an IC50 of 5 to 50 nM.

`Cc1c(-c2cnc(N3CCN(C)CC3)nc2)cccc1-c1cccc(-c2nc3cc(CN4CCC[C@H]4C(=O)O)c(OC(F)F)cc3o2)c1C` [Example 282, ((6-(difluoromethoxy)-2-(2,2′-dimethyl-3′-(2-(4-methylpiperazin-1-yl)pyrimidin-5-yl)-[1,1′-biphenyl]-3-yl)benzo[d]oxazol-5-yl)methyl)-L-proline] came in with an IC50 of 5 to 50 nM.

Take `Cc1c(-c2nc3cc(CN4CCC[C@H]4C(=O)O)c(OC(F)F)cc3o2)cccc1-c1cccc(-c2nc3c(F)c(F)c(CN4CCCC4)cc3n2CC(F)(F)F)c1C` [Example 300, ((2-(3′-(4,5-difluoro-6-(pyrrolidin-1-ylmethyl)-1-(2,2,2-trifluoroethyl)-1H-benzo[d]imidazol-2-yl)-2,2′-dimethyl-[1,1′-biphenyl]-3-yl)-6-(difluoromethoxy)benzo[d]oxazol-5-yl)methyl)-L-proline]: the IC50 was more than 50 nM.

With `Cc1c(-c2ccc(CN3CCCC3)c(OCC3CC3)c2)cccc1-c1cccc(-c2nc3cc(CN4CCC[C@H]4C(=O)O)c(OC(F)F)cc3o2)c1C` [Example 250, ((2-(3″-(cyclopropylmethoxy)-2,2′-dimethyl-4″- (pyrrolidin-1-ylmethyl)-[1,1′:3′,1″-terphenyl]-3-yl)-6-(difluoromethoxy)benzo[d]oxazol-5-yl)methyl)proline], the IC50 fell in the range of 0.1 to 5 nM.

With `Cc1c(-c2nc3cc(CN4CCCC4C)c(OC(F)F)cc3o2)cccc1-c1cccc(-c2nc3cc(CN4CCC[C@H]4C(=O)O)c(OC(F)F)cc3o2)c1C` (stereo partly drawn) [Example 38, ((6-(difluoromethoxy)-2-(3′-(6-(difluoromethoxy)-5-((2-methylpyrrolidin-1-yl)methyl)benzo[d]oxazol-2-yl)-2,2′-dimethyl-[1,1′-biphenyl]-3-yl)benzo[d]oxazol-5-yl)methyl)-L-proline], the IC50 was in the range of 0.1 to 5 nM.

The molecule `Cc1c(-c2nc3cc(CN4CCC[C@H]4C(=O)O)c(OC(F)F)cc3o2)cccc1-c1cccc(-c2nc3cc(CNCC4CCC(=O)N4)cnc3o2)c1C` (stereo partly drawn) [Example 115, ((6-(difluoromethoxy)-2-(2,2′-dimethyl-3′-(6-((((5-oxopyrrolidin-2-yl)methyl)amino)methyl)oxazolo[5,4-b]pyridin-2-yl)-[1,1′-biphenyl]-3-yl)benzo[d]oxazol-5-yl)methyl)-L-proline] returned an IC50 of 0.1 to 5 nM.

In turn, `COC1CN(Cc2cc3nc(-c4cccc(-c5cccc(-c6nc7cc(CN8CCC[C@H]8C(=O)O)c(OC(F)F)cc7o6)c5C)c4C)oc3cc2OC(F)F)C1` [Example 43, ((6-(difluoromethoxy)-2-(3′-(6-(difluoromethoxy)-5-((3-methoxyazetidin-1-yl)methyl)benzo[d]oxazol-2-yl)-2,2′-dimethyl-[1,1′-biphenyl]-3-yl)benzo[d]oxazol-5-yl)methyl)-L-proline] gave an IC50 of 5 to 50 nM.

In turn, `Cc1c(-c2ccc(CN3CCC(NC(N)=O)C3)c(F)c2)cccc1-c1cccc(-c2nc3cc(CN4CCC[C@H]4C(=O)O)c(OC(F)F)cc3o2)c1C` (stereo partly drawn) [Example 260, ((6-(difluoromethoxy)-2-(3″-fluoro-2,2′-dimethyl-4″-((3-ureidopyrrolidin-1-yl)methyl)-[1,1′:3′,1″-terphenyl]-3-yl)benzo[d]oxazol-5-yl)methyl)-L-proline] came in with an IC50 of 5 to 50 nM.

Regarding `Cc1c(Nc2nccc3cc(CN4CCC(O)C4)cnc23)cccc1-c1cccc(-c2nc3cc(CN4CC[C@H](C(=O)O)C4)c(OC(F)F)cc3o2)c1C` (stereo partly drawn) [Example 180, (3S)-1-((6-(difluoromethoxy)-2-(3′-((3-((3-hydroxypyrrolidin-1-yl)methyl)-1,7-naphthyridin-8-yl)amino)-2,2′-dimethyl-[1,1′-biphenyl]-3-yl)benzo[d]oxazol-5-yl)methyl)pyrrolidine-3-carboxylic acid], the IC50 fell in the range of 0.1 to 5 nM.

Take `COc1nc(-c2cccc(-c3cccc(-c4nc5cc(CN6CCC[C@H]6C(=O)O)c(OC(F)F)cc5o4)c3C)c2C)ccc1CN1CCC[C@@H]1C` [Example 277, ((6-(difluoromethoxy)-2-(3′-(6-methoxy-5-(((S)-2-methylpyrrolidin-1-yl)methyl)pyridin-2-yl)-2,2′-dimethyl-[1,1′-biphenyl]-3-yl)benzo[d]oxazol-5-yl)methyl)-L-proline]: the IC50 fell in the range of 0.1 to 5 nM.

`Cc1c(-c2nc3cc(CN4CCC[C@H]4C(=O)O)c(OC(F)F)cc3o2)cccc1-c1cccc(-c2nc3cc(CN4CC(N5CC(C)(O)C5)C4)cc(C#N)c3o2)c1C` [Example 150, ((2-(3′-(7-cyano-5-((3-hydroxy-3-methyl-[1,3′-biazetidin]-1′-yl)methyl)benzo[d]oxazol-2-yl)-2,2′-dimethyl-[1,1′-biphenyl]-3-yl)-6-(difluoromethoxy)benzo[d]oxazol-5-yl)methyl)-L-proline]: the IC50 lay in the range of 0.1 to 5 nM.
